Measured values published in US5648333A, “Peptides having bradykinin antagonist action” (Hoechst Aktiengesellschaft, priority 1988, dated 1997).
Where a SMILES comes first, the peptide text is derived from it. [ ]: non-standard residue; d: D form. Oic = O=C(O)[C@@H]1C[C@@H]2CCCC[C@@H]2N1; Hyp = O=C(O)[C@@H]1C[C@@H](O)CN1; dTic = O=C(O)[C@H]1Cc2ccccc2CN1

Biological target: T1, isolated pulmonary artery of the guinea pig (Cavia porcellus, UniProt O70526)
T1 sequence (O70526 1-372): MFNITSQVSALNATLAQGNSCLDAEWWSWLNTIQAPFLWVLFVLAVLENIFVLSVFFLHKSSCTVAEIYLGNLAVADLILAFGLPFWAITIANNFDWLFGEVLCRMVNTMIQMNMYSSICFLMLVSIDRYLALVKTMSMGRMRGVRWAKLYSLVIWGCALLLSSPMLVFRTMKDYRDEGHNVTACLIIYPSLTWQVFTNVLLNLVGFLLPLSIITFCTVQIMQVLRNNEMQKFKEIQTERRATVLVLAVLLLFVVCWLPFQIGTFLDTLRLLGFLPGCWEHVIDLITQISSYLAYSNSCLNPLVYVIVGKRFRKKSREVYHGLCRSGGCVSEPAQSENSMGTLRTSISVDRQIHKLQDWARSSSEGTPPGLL
Assay: bradykinin antagonist action on the isolated arteria pulmonalis of the guinea pig (decrease of bradykinin-induced contraction)
Procedure: For testing the peptides according to the invention on the isolated arteria pulmonalis, guinea pigs (Dunkin Hartley) having a weight of 400-450 g are sacrificed by a blow to the back of the neck.
The thorax is opened and the arteria pulmonalis is carefully dissected out. The surrounding tissue is carefully removed and the arteria pulmonalis is cut spirally at an angle of 45°.
The vessel strip of 2.5 cm length and 3-4 mm width is fixed in a 10 ml capacity organ bath which is filled with Ringer solution.
95% O2 and 5% CO2 is bubbled through the solution, which is warmed to 37° C. The pH is 7.4 and the preload on the vessel strip is 1.0 g.
The isotonic contraction changes are detected using a lever arrangement and an HF modem (position sensor) from Hugo Sachs and recorded on a compensating recorder (BEC, Goerz Metrawatt SE 460).
After equilibration for 1 hour, the experiment is begun.
For the detection of a partial agonistic effect, the peptides are used in the doses 1×10^-5 -1×10^-3 mol/l.

[1] = Table 1, vessel strip contracted with 2×10^-7 mol/l of bradykinin, peptides act 10 minutes, calculated from dose-effect curves

Row | SMILES | IC50 (table by Example No., test not named there, values coincide with Table 1) | IC50 [1]
1 | N=C(N)NCCC[C@@H](N)C(=O)N[C@@H](CCCNC(=N)N)C(=O)N1CCC[C@H]1C(=O)N1C[C@H](O)C[C@H]1C(=O)NCC(=O)N[C@@H](Cc1cccs1)C(=O)N[C@@H](CO)C(=O)N1Cc2ccccc2C[C@@H]1C(=O)N1[C@H](C(=O)N[C@@H](CCCNC(=N)N)C(=O)O)C[C@@H]2CCCC[C@@H]21 [Example 59, H-(D)-Arg-Arg-Pro-Hyp-Gly-Thia-Ser-(D)-Tic-Oic-Arg-OH] | 5.4 nM | –
2 | CC(C)C[C@H](NC(=O)CNC(=O)[C@@H]1C[C@@H](O)CN1C(=O)[C@@H]1CCCN1C(=O)[C@H](CCCNC(=N)N)NC(=O)[C@H](N)CCCNC(=N)N)C(=O)N[C@@H](CO)C(=O)N1Cc2ccccc2C[C@@H]1C(=O)N1[C@H](C(=O)N[C@@H](CCCNC(=N)N)C(=O)O)C[C@@H]2CCCC[C@@H]21 [Example 199, H-(D)-Arg-Arg-Pro-Hyp-Gly-Leu-Ser-(D)-Tic-Oic-Arg-OH] (H-[dR]RP[Hyp]GLS[dTic][Oic]R-OH) | – | 5.9 nM
3 | CC(C)(C)[C@H](NC(=O)CNC(=O)[C@@H]1C[C@@H](O)CN1C(=O)[C@@H]1CCCN1C(=O)[C@H](CCCNC(=N)N)NC(=O)[C@H](N)CCCNC(=N)N)C(=O)N[C@@H](CO)C(=O)N1Cc2ccccc2C[C@@H]1C(=O)N1[C@H](C(=O)N[C@@H](CCCNC(=N)N)C(=O)O)C[C@@H]2CCCC[C@@H]21 [Example 201, H-(D)-Arg-Arg-Pro-Hyp-Gly-Tbg-Ser-(D)-Tic-Oic-Arg-OH] | – | 6000 nM
4 | N=C(N)NCCC[C@@H](N)C(=O)N[C@@H](CCCNC(=N)N)C(=O)N1CCC[C@H]1C(=O)N1C[C@H](O)C[C@H]1C(=O)NCC(=O)N[C@@H](CC1CCCCC1)C(=O)N[C@@H](CO)C(=O)N1Cc2ccccc2C[C@@H]1C(=O)N1[C@H](C(=O)N[C@@H](CCCNC(=N)N)C(=O)O)C[C@@H]2CCCC[C@@H]21 [Example 200, H-(D)-Arg-Arg-Pro-Hyp-Gly-Cha-Ser-(D)-Tic-Oic-Arg-OH] | – | 37 nM
